Data on one compound can be found in PMC11725127 (Acta Pharmaceutica Sinica. B, 2024).

Structures are written as SMILES.

Assay [1] has as its target ubiquitin-specific protease 2 (USP2) (Homo sapiens, UniProt O75604, C284S). Description: thermal stability shift. Format: cell-based.
The target of assay [2] is USP7 (Homo sapiens, UniProt Q93009). Description: in vitro gel-based GST-UBA52 cleavage assay. It counts as biochemical.
Assay [3] concerns the target ubiquitin-specific protease 2 (USP2) (Homo sapiens, UniProt O75604). Description: LC-MS/MS covalent adduct on recombinant USP2. It counts as biochemical.

USP7, sequence (Q93009 whole entry): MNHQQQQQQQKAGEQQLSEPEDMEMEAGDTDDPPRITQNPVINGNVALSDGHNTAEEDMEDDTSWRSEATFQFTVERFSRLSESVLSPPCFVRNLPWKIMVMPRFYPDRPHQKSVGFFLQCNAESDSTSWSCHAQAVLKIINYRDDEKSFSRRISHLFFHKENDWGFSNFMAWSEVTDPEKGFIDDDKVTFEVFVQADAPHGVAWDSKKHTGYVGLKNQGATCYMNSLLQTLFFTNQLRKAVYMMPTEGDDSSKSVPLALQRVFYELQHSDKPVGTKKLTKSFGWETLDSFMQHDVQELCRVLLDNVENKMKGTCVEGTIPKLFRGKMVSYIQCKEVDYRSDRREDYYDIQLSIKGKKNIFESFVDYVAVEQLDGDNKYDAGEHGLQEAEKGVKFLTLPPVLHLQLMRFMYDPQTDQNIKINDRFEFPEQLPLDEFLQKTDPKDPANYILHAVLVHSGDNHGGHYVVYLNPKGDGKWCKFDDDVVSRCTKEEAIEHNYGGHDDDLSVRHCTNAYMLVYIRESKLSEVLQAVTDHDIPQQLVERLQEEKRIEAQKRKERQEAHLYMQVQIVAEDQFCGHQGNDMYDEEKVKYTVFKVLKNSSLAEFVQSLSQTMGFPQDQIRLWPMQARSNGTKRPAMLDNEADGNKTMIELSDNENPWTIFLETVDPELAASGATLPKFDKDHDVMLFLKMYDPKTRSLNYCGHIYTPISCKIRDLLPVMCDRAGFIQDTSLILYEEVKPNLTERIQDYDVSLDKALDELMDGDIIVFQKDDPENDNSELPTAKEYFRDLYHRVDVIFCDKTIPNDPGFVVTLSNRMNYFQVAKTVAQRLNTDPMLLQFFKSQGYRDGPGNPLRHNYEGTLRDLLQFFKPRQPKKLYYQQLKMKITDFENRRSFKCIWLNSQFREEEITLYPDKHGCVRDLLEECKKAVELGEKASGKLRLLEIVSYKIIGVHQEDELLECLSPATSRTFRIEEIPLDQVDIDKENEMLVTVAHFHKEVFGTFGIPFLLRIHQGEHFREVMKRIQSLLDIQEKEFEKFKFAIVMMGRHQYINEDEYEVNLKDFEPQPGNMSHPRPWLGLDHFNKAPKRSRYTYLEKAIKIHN
ubiquitin-specific protease 2 (USP2) (Homo sapiens, UniProt O75604), sequence (O75604 259-605): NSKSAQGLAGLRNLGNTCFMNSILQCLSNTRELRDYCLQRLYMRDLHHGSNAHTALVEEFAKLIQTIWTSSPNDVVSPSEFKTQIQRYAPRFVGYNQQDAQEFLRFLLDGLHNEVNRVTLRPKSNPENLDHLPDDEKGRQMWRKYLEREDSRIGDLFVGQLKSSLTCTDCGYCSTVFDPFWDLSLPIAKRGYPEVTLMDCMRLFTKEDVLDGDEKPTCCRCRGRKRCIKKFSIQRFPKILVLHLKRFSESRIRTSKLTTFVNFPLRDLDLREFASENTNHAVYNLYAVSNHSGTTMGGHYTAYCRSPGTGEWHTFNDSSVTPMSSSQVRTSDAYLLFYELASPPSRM
ubiquitin-specific protease 2 (USP2) (Homo sapiens, UniProt O75604, C284S), sequence (O75604 whole entry C284S): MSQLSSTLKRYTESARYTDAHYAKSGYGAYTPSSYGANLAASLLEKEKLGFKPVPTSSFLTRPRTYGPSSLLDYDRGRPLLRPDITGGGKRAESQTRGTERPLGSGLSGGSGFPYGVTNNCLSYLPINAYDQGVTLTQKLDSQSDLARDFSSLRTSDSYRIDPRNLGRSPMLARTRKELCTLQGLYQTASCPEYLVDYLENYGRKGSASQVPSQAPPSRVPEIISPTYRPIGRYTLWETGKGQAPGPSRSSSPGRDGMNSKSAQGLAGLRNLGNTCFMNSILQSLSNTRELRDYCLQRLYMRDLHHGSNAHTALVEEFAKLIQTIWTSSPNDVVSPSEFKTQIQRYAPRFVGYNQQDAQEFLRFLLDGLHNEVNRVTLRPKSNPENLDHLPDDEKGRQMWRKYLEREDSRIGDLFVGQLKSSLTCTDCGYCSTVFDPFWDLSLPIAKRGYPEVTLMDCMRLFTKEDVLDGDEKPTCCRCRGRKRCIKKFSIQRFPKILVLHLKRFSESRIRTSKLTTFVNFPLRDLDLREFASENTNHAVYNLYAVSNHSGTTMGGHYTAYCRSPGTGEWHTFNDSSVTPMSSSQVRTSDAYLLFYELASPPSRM

As a reminder, the IC50 is the concentration needed to halve the response being measured. As to `CC(C)=CCC[C@]1(C)C=Cc2c(O)c3c(c(CC=C(C)C)c2O1)O[C@]12C(=C[C@@H]4C[C@H]1C(C)(C)O[C@@]2(C/C=C(/C)C(=O)O)C4=O)C3=O` [GA, gambogic acid], the “thermal stability shift (Fig. S15)” value in assay [1] is given as “the thermal stability of USP2^Cys284S could also be altered by GA”. The IC50 came out at 17 µM in assay [2] and 1.8 µM in assay [3].
